# In ChEMBL document CHEMBL3988442, “University of Dundee, Small-Polar-MMV Screening Library” (2021):
# Experiments:
# [1] = microbe, parasite or virus in culture; conditions: Mycobacterium tuberculosis, 96 h, read-out: pIC50 (converted)
# [2] = microbe, parasite or virus in culture; conditions: Mycobacterium tuberculosis, 72 h, read-out: pIC50 (converted)
smiles,measurement,setting,value
O=C(c1ccco1)N1CCCN(Cc2cscn2)CC1,IC50,[1],> 501 µM
same,IC50,[2],> 501 µM
Cc1cccc(CN2CCCC3(CCN(C4CCSCC4)C3)C2=O)c1 (centres undefined),IC50,[1],15.8 µM
same,IC50,[2],10 µM
CCc1ccc(C(=O)NCc2ccccn2)o1,IC50,[1],138 µM
same,IC50,[2],40.5 µM
COC(=O)COc1cc(NCc2c(C)noc2C)c(Cl)cc1C,IC50,[1],35 µM
same,IC50,[2],32.1 µM
COCCOc1ccc(NC(=O)OCC(F)(F)F)cn1,IC50,[1],110 µM
same,IC50,[2],208 µM
COc1ccnc(NCCS(=O)(=O)c2ccccc2)n1,IC50,[1],> 501 µM
same,IC50,[2],> 501 µM
CN(C)c1nccc(CNc2ccc(C#N)nc2)n1,IC50,[1],249 µM
same,IC50,[2],128 µM
COC(=O)NCCc1ccccc1OC,IC50,[1],> 501 µM
same,IC50,[2],98.5 µM
O=C(Cn1ccc(C(F)(F)F)n1)NCc1ccco1,IC50,[1],> 501 µM
same,IC50,[2],> 501 µM
Cn1cnc2c1CCN(c1ccnc(-c3ccccc3)n1)C2,IC50,[1],38.1 µM
same,IC50,[2],15.6 µM
Cc1cccc(C(=O)NCc2cccc(O)c2)n1,IC50,[1],489 µM
same,IC50,[2],172 µM
O=C(NCC1(O)COCCN(Cc2cccc(O)c2)C1)c1cscn1 (centres undefined),IC50,[1],> 50.1 µM
same,IC50,[2],> 50.1 µM
NCCCNS(=O)(=O)c1ccc(Br)c(F)c1,IC50,[1],> 501 µM
same,IC50,[2],189 µM
CCOc1ccc(N(CC(=O)c2ccccc2)C2=NCCCCC2)cc1,IC50,[1],27.6 µM
same,IC50,[2],22.4 µM
CC(C)c1ncc(C(=O)N2CCS(=O)(=O)CC2)cn1,IC50,[1],> 501 µM
same,IC50,[2],> 501 µM
CCCn1nnnc1NCc1ccc(C)s1,IC50,[1],51.8 µM
same,IC50,[2],64.7 µM
O=C(NCCC(O)C(F)(F)F)c1c(O)cc(F)cc1F (centres undefined),IC50,[1],244 µM
same,IC50,[2],290 µM
O=C(c1coc(COc2cccc3cnccc23)n1)N1CCSCC1,IC50,[1],> 50.1 µM
same,IC50,[2],> 50.1 µM
Cc1ccc(NC(=O)Cn2ccnc2)cc1,IC50,[1],171 µM
same,IC50,[2],159 µM
CCc1cc(CN(C)C(=O)c2cnon2)on1,IC50,[1],> 50.1 µM
same,IC50,[2],> 50.1 µM
CC(C(=O)NC1CC1)N1CCN(C)c2ccccc2C1 (centres undefined),IC50,[1],276 µM
same,IC50,[2],248 µM
CC1CN(CCC(=O)NC(N)=O)CCO1 (centres undefined),IC50,[1],286 µM
same,IC50,[2],80.3 µM
COCCCNC(=O)C1=Cc2ccccc2OC1,IC50,[1],115 µM
same,IC50,[2],119 µM
CC(C)Cc1nnc(NCc2ccsc2)o1,IC50,[1],35.4 µM
same,IC50,[2],3.95 µM
OC1(CNc2nc(-c3ccccc3)ns2)CCSC1 (centres undefined),IC50,[1],256 µM
same,IC50,[2],279 µM
COCCC1(CNC(=O)NCC2CCCS2)CCCC1 (centres undefined),IC50,[1],> 50.1 µM
same,IC50,[2],> 50.1 µM
CCCc1ccc(C(=O)N2CCCN(C)CC2)cc1,IC50,[1],> 501 µM
same,IC50,[2],270 µM
c1cc(CNCc2ccc(-n3cncn3)nc2)cc(OC2CCCC2)c1,IC50,[1],33.9 µM
same,IC50,[2],35 µM
O=C(COC(=O)c1ccccn1)Nc1ccccc1,IC50,[1],> 501 µM
same,IC50,[2],234 µM
NC(=O)c1ccc(-n2ccnc2-c2cccc(O)c2)cc1N1CCCC1,IC50,[1],> 50.1 µM
same,IC50,[2],> 50.1 µM
O=C(CO)N1CCCC(CCc2ccccc2F)C1 (centres undefined),IC50,[1],142 µM
same,IC50,[2],196 µM
NS(=O)(=O)c1ccc(NC(=O)Cn2ccnc2)cc1,IC50,[1],> 501 µM
same,IC50,[2],> 501 µM
CNS(=O)(=O)CC1CCCN1c1ncc(Br)cn1 (centres undefined),IC50,[1],> 501 µM
same,IC50,[2],289 µM
COc1cc(Oc2cnc3ccccc3n2)ccc1CN1CCCC1,IC50,[1],13 µM
same,IC50,[2],9.42 µM
Cc1nccc(C(=O)N2CCCN(Cc3cnn(C(C)C)c3)CC2)n1,IC50,[1],> 50.1 µM
same,IC50,[2],> 50.1 µM
CCCN1CCN(C(=O)COc2ccccc2)CC1,IC50,[1],57.3 µM
same,IC50,[2],33.3 µM
CC(C)CC(C)Oc1cc(CNS(N)(=O)=O)ccn1 (centres undefined),IC50,[1],372 µM
same,IC50,[2],116 µM
CN(C)S(=O)(=O)NCCNc1ccc2ccccc2n1,IC50,[1],326 µM
same,IC50,[2],419 µM
Cc1cc(Br)oc1C(=O)N1CCCN(C)CC1,IC50,[1],> 501 µM
same,IC50,[2],248 µM
O=C(O)[C@@H]1CN(C(=O)NCC2CCCCC2)C[C@H]1c1ccccn1,IC50,[1],> 50.1 µM
same,IC50,[2],> 50.1 µM
Cc1ccccc1N1C(=O)C=CC1=O,IC50,[1],254 µM
same,IC50,[2],157 µM
COCCN1CCC(CNC(=O)N2CCC(C)CC2)C1 (centres undefined),IC50,[1],83.9 µM
same,IC50,[2],75.1 µM
